Reference: the METLIN SMRT retention time set (Domingo-Almenara et al. 2019)

Assay: gradient 5% acetonitrile 3 min, to 50% in 2 min, to 85% in 15 min, held 3 min, 100 µL/min
Settings: column: Zorbax Extend-C18 2.1 x 50 mm; eluents: water / acetonitrile, 0.1% formic acid
Method in brief: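 In both positive and negative ionization mode, a quadrupole time-of-flight mass spectrometer coupled to HPLC analyzed pure standards run in mixtures of ~100 molecules. The Zorbax Extend-C18 column (2.1 × 50 mm, 1.8 μm) was operated at 100 μL/min with water and acetonitrile, each containing 0.1% formic acid. The dead volume was 40 μL and the dwell volume 900 μL. Retention time came from adduct peaks that were computationally picked and individually inspected by hand.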

## CCS(=O)(=O)N1CCCc2cc(C(=O)Nc3cc(OC)c(Cl)cc3OC)ccc21
  RP-LC retention time: 1040 s

## O=C(CCc1nnc2ccc(N3CCC4(CC3)OCCO4)nn12)N1CCN(c2ccccn2)CC1
  RP-LC retention time: 581 s

## CCc1sc(NC(=O)c2cc3c([nH]c2=O)CCCC3=O)nc1-c1ccc(C)c(C)c1
  RP-LC retention time: 1030 s

## Cc1ccccc1-c1csc(Cc2nc(-c3ccc(Cl)cc3)no2)n1
  RP-LC retention time: 1330 s

## CCCN1C(=O)COc2ccc(-c3noc(-c4cc(OC)cc(OC)c4)n3)cc21
  RP-LC retention time: 1240 s

## CCc1ccc(CNC(=O)c2csc(C(=O)NC)n2)cc1
  RP-LC retention time: 808 s

## CCN(CC)S(=O)(=O)c1ccc2c(c1)N(CC(=O)NCc1cccs1)C(=O)C1CCCCN21 (stereo not drawn)
  RP-LC retention time: 949 s

## CCN(CC)C(=O)c1cnc2snc(C)c2c1N1CCC(C(=O)Nc2cc(OC)c(OC)c(OC)c2)CC1
  RP-LC retention time: 810 s

## CCCc1ccc(S(=O)(=O)N2CCCC2c2nc(-c3ccc(Cl)cc3)no2)cc1 (stereo not drawn)
  RP-LC retention time: 1380 s

## COc1ccc(NC(=O)N2CC=C(c3cn(C(C)C)c4ncccc34)CC2)cc1
  RP-LC retention time: 858 s

## Cc1cccc(C)c1Nc1c(-c2ccc(F)cc2)nc2cnccn12
  RP-LC retention time: 901 s

## O=C(NCc1cccc(Br)c1)C1CCN(c2cnc3nccnc3c2)CC1
  RP-LC retention time: 726 s

## COc1ccc(CNC(=O)c2cn3ccc(C)cc3n2)c(OC)c1
  RP-LC retention time: 730 s

## CNC(=O)[C@@H](NC(=O)[C@H](CC(C)C)[C@H](O)C(=O)NO)C(C)(C)C
  RP-LC retention time: 620 s

## CN1CCN(C(=O)C2CCCN(c3ncccc3-c3noc(C4CCC4)n3)C2)CC1 (stereo not drawn)
  RP-LC retention time: 623 s

## O=C(NC1CCN(c2cc(-c3ccc(F)cc3)[nH]n2)CC1)C1COc2ccccc2O1 (stereo not drawn)
  RP-LC retention time: 824 s

## O=C(Nc1cccc(OCc2nnc(-c3ccc(F)cc3)o2)c1)c1ccsc1
  RP-LC retention time: 920 s

## Cc1nc(-c2csc(S(=O)(=O)N3CCCC(C(=O)N4CCc5ccccc5C4)C3)c2)no1 (stereo not drawn)
  RP-LC retention time: 977 s

## Cc1nc(-c2ccccn2)cc2nn(CC(=O)NCC3CCCO3)c(=O)n12 (stereo not drawn)
  RP-LC retention time: 604 s

## COCC(=O)N(CC(=O)N1CCc2sccc2C1COc1ccc(C)cc1C)CC1CC1 (stereo not drawn)
  RP-LC retention time: 982 s

## Cc1ccc(CNC(=O)C2(C)CCCN(C(=O)Nc3cc(C)cc(C)c3)C2)cc1 (stereo not drawn)
  RP-LC retention time: 912 s

## O=C(c1cn2ccnc(-c3ccc(F)cc3)c2n1)N1CCN(C(=O)c2ccco2)CC1
  RP-LC retention time: 693 s

## Cc1noc(C2(NC(=O)c3ccccn3)CCCCC2)n1
  RP-LC retention time: 766 s

## CCCCN1CCN(C(=O)c2cn(-c3cc(N4CCC(C)CC4)ncn3)cn2)CC1
  RP-LC retention time: 690 s

## COc1ccccc1N1CCN(C(=O)Cn2nc(C(=O)N3CCOCC3)c3ccccc32)CC1
  RP-LC retention time: 718 s

## CSc1ccc(-c2nc3cnccn3c2Nc2ccc(C(=O)O)cc2)cc1
  RP-LC retention time: 719 s

## O=C(NC1CCN(c2cc(-c3cccnc3)[nH]n2)CC1)C1CCCCC1
  RP-LC retention time: 573 s

## CCCn1ccc2sc(C)c(C(=O)N3CCN(C4CCCCC4)CC3)c2c1=O
  RP-LC retention time: 606 s

## CCCn1c(=O)sc2cc(S(=O)(=O)N3CCC(C(=O)N4CCCCCC4)CC3)ccc21
  RP-LC retention time: 937 s

## Cc1cc(Cl)ccc1NC(=O)c1ncn2c1C(=O)N(C1CC1)C(C)(C(=O)NC1CCCC1)C2 (stereo not drawn)
  RP-LC retention time: 879 s

## CCc1ccc(CNC(=O)c2cc3ccncc3n2C)cc1
  RP-LC retention time: 648 s

## O=C(c1cccnc1)N1CCCC(c2n[nH]c(C3CC3)n2)C1 (stereo not drawn)
  RP-LC retention time: 486 s

## CC1=C(c2ccc(C)cc2)S(=O)(=O)N=C1N1CCCN(C(=O)C2CC2)CC1
  RP-LC retention time: 581 s

## CCOC(=O)N1CCN(S(=O)(=O)c2ccc(C(=O)Nc3cccc(C)n3)cc2)CC1
  RP-LC retention time: 721 s

## CCn1cc(-c2ccc(Cl)cc2)cc1C(=O)N1CCC(N2CCCCC2)CC1
  RP-LC retention time: 713 s

## Cc1ccn2cc(-c3ccc(NC(=O)C(C)(C)C)cc3)nc2n1
  RP-LC retention time: 616 s

## O=c1oc2cc(O)ccc2s1
  RP-LC retention time: 771 s

## CO[C@H]1CN(C2CCN(S(=O)(=O)c3ccc(C#N)cc3)CC2)[C@H]1c1cccnc1
  RP-LC retention time: 609 s

## Cc1cc(C)c(C)c(S(=O)(=O)Nc2ccc(C(=O)NCc3ccccn3)cc2)c1C
  RP-LC retention time: 630 s

## COc1cccc(NC(=O)Cn2c(=O)c3cc(-c4ccco4)nn3c3ncccc32)c1
  RP-LC retention time: 807 s

## COc1ccc(CC(=O)N2C[C@@H]3C[C@H](NS(C)(=O)=O)[C@H]2C3)cc1Cl
  RP-LC retention time: 651 s

## CCOC(=O)c1ccc2nc(NC(=O)c3ccn(C)n3)sc2c1
  RP-LC retention time: 828 s

## CC(C)NC(=O)c1ccc(OCC2CCCN(C(=O)c3ccc(C#N)cc3)C2)cc1 (stereo not drawn)
  RP-LC retention time: 800 s

## CCOc1ccc(-n2c(=O)c3sccc3n(Cc3nc(-c4cccc(OCC)c4)no3)c2=O)cc1
  RP-LC retention time: 1080 s

## N#Cc1nc(-c2ccc(COc3ccc(Cl)cc3)o2)oc1NCCCn1ccnc1
  RP-LC retention time: 627 s

## COCc1noc(C2CN(C(=O)c3ccc(Cl)s3)CC23CCCC3)n1 (stereo not drawn)
  RP-LC retention time: 962 s

## COc1ccc(Cl)cc1NC(=O)N1CCN(c2ccc3nncn3n2)CC1
  RP-LC retention time: 667 s

## CCOCCCNC(=O)C1CCCN(c2nnc(C)c3c(C)n(-c4ccc(OC)cc4)nc23)C1 (stereo not drawn)
  RP-LC retention time: 665 s

## COc1ccc(-c2cc3n(n2)CCCN(C(=O)c2ccc4nc[nH]c4c2)C3)cc1
  RP-LC retention time: 614 s

## Cc1cc(C)c2c(n1)nn1c(N3CCN(c4ccccn4)CC3)cc(C)nc21
  RP-LC retention time: 561 s

## O=S(=O)(Cc1ccccc1)N1CCC(c2noc(COCc3ccccc3)n2)CC1
  RP-LC retention time: 1060 s

## COc1nccnc1N1CCC(NC(=O)c2ccc3cc[nH]c3c2)C1 (stereo not drawn)
  RP-LC retention time: 633 s

## N#Cc1ccc(C(=O)NC2CCN(C(=O)C3CC3)C2)cc1 (stereo not drawn)
  RP-LC retention time: 629 s

## O=c1c2scc(-c3ccc(Br)cc3)c2ncn1Cc1ccccn1
  RP-LC retention time: 938 s

## COc1ccc(CNC(=O)c2cn(-c3cc(N(C)C)ncn3)cn2)cc1
  RP-LC retention time: 743 s

## Cc1ccc(-n2nc(N3CCCC(C(=O)NC(C)CCc4ccccc4)C3)ccc2=O)cc1Cl (stereo not drawn)
  RP-LC retention time: 1060 s

## CCc1noc(-c2cc(=O)n(CC(=O)NCc3ccccc3OC)c3ccccc23)n1
  RP-LC retention time: 900 s

## COc1cccc(NC(=O)N2CCCC2c2nc(-c3cccc(C)c3)no2)c1 (stereo not drawn)
  RP-LC retention time: 877 s

## CCc1ccc(S(=O)(=O)c2cnc(N3CCN(c4cccc(C)c4)CC3)nc2N)cc1
  RP-LC retention time: 1220 s

## COCCn1cc(C(=O)NCC(C)C)c2nn(-c3ccccc3)c(=O)c-2c1
  RP-LC retention time: 851 s

## CN(CC1CCOCC1)C(=O)Nc1cc(F)cc(F)c1
  RP-LC retention time: 754 s

## Cc1ccnc(N2CCCC(C(=O)NCc3ccc(F)cc3)C2)n1 (stereo not drawn)
  RP-LC retention time: 709 s

## CN(C)C(=O)c1cc2c(s1)CCC(C(=O)NC1CCCCC1)C2 (stereo not drawn)
  RP-LC retention time: 748 s

## CCCCOc1ccc(C(=O)N2CCN(c3cc(C)nc(N4CCCCC4)n3)CC2)cc1
  RP-LC retention time: 816 s

## Cc1noc(-c2nn(C)c3c2CN(C(=O)Nc2ccccc2C(F)(F)F)CC3)n1
  RP-LC retention time: 709 s

## CCOCCCNC(=O)c1nnc(-c2ccc(S(=O)(=O)N3CCOCC3)cc2)o1
  RP-LC retention time: 727 s

## Cc1ccc(NC(=O)C2CCCN(c3cc(=O)n(C)c(=O)n3C)C2)cc1C (stereo not drawn)
  RP-LC retention time: 746 s

## COc1ccc(Cn2c(C)c(CNCc3ccco3)c(C(=O)O)c2C)cc1
  RP-LC retention time: 673 s

## Cc1ccc(NS(=O)(=O)c2cc3c(s2)CCN(C(=O)C2CCC2)C3)c(C)c1
  RP-LC retention time: 943 s

## Cn1nc(-c2nnc(-c3ccccc3)o2)c2c1CCN(S(=O)(=O)c1cccc3cccnc13)C2
  RP-LC retention time: 857 s

## CCNC(=O)CCc1nc2ccccc2n(CC(=O)NCCc2ccc(Cl)cc2)c1=O
  RP-LC retention time: 773 s

## Cc1ccc(N2C=C(C(=O)N3CCOCC3)S(=O)(=O)c3ccc(F)cc32)cc1
  RP-LC retention time: 814 s

## O=C(CCC1CCCC1)NC1CCN(c2ccc(=O)[nH]n2)C1 (stereo not drawn)
  RP-LC retention time: 649 s

## O=C(NCCN1CCCCCC1)c1cc2n(n1)CCCN(Cc1ccc(Cl)cc1)C2=O
  RP-LC retention time: 670 s

## Cc1nn(-c2cc(N3CCCC3)ncn2)c(C)c1CCC(=O)NCc1ccco1
  RP-LC retention time: 686 s

## CN(C)C(=O)c1cc2c(s1)CCC(C(=O)NC1CCN(Cc3ccccc3)CC1)C2 (stereo not drawn)
  RP-LC retention time: 598 s

## CCn1cnc(S(=O)(=O)N2CCC(C(=O)Nc3ccc(C)cc3C)CC2)c1
  RP-LC retention time: 741 s

## Cc1cccc(NC(=O)N2CC(Cc3nncn3C(C)C)C2)c1C
  RP-LC retention time: 627 s

## CCc1ccc(NC(=O)c2cc(=O)n(C)c3c2c(=O)n(C)c(=O)n3C)cc1
  RP-LC retention time: 870 s

## CCNC(=O)c1cc2cc(Br)ccc2[nH]1
  RP-LC retention time: 828 s

## COc1ccc(NS(=O)(=O)c2sc3ccc(Cl)cc3c2C)cc1N1CCNCC1
  RP-LC retention time: 781 s

## CCCCC(=O)O[C@]1(C(=O)CO)CC[C@H]2[C@@H]3CCC4=CC(=O)CC[C@]4(C)[C@H]3[C@@H](O)C[C@@]21C
  RP-LC retention time: 1020 s

## CCCS(=O)(=O)N1CCC2(CC1)CC(N1CCN(c3ccccc3)CC1)CCO2 (stereo not drawn)
  RP-LC retention time: 538 s

## Cc1cc(C(=O)NC(C)C)n[nH]1
  RP-LC retention time: 592 s

## CCn1cc(CN2CCC(C(=O)NCc3ccco3)CC2)c2cc(Cl)ccc21
  RP-LC retention time: 722 s

## Cc1cc(-c2nnc(-c3ccco3)o2)c(C)n1CC(=O)NCc1ccc(F)cc1F
  RP-LC retention time: 857 s

## Cc1ccc(Cc2nc(C3CC(=O)N(c4ccc(Cl)cc4)C3)no2)cc1 (stereo not drawn)
  RP-LC retention time: 1060 s

## Clc1ccc(-c2nc(N3CCCCCC3)c3ccccc3n2)cc1
  RP-LC retention time: 847 s
